From patent US20260070899A1, “N-(2-(4-CYANOTHIAZOLIDIN-3-YL)-2-OXOETHYL)-QUINOLINE-4-CARBOXAMIDES” (AstraZeneca AB, priority 2022, published 2026)

How the values were obtained:
Assay in all cases: biochemical
hFAP = target: T1, hFAP (Homo sapiens, UniProt Q12884);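 also: substrate fluorescence read at room temperature in darkness, IC50 obtained by one-site dose-response fitting of percent inhibition against log concentration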
T1 sequence (Q12884 38-760): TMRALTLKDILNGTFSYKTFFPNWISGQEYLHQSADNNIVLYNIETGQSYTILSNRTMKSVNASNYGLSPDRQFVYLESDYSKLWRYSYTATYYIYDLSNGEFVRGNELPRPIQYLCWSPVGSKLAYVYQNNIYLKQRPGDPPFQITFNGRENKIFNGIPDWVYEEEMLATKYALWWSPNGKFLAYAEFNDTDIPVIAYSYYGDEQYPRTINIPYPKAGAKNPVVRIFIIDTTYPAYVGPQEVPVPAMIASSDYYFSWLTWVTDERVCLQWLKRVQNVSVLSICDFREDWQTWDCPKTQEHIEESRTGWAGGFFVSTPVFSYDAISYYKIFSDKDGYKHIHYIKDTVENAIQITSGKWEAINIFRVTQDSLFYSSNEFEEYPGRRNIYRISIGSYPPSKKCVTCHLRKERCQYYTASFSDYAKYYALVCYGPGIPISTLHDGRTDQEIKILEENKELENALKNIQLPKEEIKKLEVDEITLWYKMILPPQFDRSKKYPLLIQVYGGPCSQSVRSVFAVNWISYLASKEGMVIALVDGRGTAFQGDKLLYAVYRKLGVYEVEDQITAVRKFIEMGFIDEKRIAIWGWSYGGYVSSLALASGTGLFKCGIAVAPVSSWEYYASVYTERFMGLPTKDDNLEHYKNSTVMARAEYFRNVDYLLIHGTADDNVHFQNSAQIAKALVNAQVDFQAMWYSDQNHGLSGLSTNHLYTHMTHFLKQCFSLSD
Experimental: 384 low volume black plates (Greiner #784076) were used. 4 μL, 0.48 nM enzyme solution (100 mM Tris HCl, 100 mM NaCl, 0.05% Chaps, pH 7.4) was added to 40 nL compounds (in DMSO) at 10 CR, 3 fold dilution series from 50 μM FAC. Plates were incubated for 15 min at rt in dark. 4 μL, 40 μM substrate solution (100 mM Tris HCl, 100 mM NaCl, 0.05% Chaps, pH 7.4) was added to each well. Plates were centrifuged at 1000 rpm and incubated for 30 min at rt in dark. The plates were read on a PHERAstar® reader with excitation 340 nm and emission 460 nm. Data were analyzed in Genedata Screener®. IC50 values were determined by plotting % inhibition versus log compound concentration and using a one site dose response model.

[1] = target: T2, Prolyl endopeptidase, Prolyl Oligopeptidase (hPREP) (Homo sapiens, UniProt P48147)
T2 sequence (P48147 1-710): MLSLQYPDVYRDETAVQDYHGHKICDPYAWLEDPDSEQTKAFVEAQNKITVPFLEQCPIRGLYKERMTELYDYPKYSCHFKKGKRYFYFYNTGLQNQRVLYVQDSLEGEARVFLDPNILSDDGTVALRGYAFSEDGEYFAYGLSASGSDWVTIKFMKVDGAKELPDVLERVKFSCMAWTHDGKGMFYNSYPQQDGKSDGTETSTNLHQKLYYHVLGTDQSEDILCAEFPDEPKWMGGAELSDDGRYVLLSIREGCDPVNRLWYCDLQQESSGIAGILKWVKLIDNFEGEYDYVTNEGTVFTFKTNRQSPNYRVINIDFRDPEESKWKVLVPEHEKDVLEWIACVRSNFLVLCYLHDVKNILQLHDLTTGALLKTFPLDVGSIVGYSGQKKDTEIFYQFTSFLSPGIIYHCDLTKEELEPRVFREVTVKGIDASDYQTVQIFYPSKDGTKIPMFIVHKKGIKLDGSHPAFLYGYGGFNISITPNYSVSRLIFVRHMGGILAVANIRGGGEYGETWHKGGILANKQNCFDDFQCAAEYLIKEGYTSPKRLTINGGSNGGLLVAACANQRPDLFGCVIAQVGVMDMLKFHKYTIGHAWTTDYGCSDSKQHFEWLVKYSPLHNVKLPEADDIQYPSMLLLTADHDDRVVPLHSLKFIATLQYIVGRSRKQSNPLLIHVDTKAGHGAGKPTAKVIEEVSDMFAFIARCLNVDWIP
Experimental: Compounds were tested in a biochemical inhibition assay using Prolyl endopeptidase, Prolyl Oligopeptidase (hPREP) enzyme at 0.6 nM FAC (R&D Systems, 4308-SE) and the substrate Z-Gly-Pro-amino-methylcoumarin (Bachem, I-1145) at 50 μM FAC. 384 Low volume black plates (Greiner #784076) were used. […] Plates were incubated for 15 min at rt in dark. 4 μL, 100 μM substrate solution (25 mM Tris HCl, 250 mM NaCl, 0.01% Triton X-100, 5 mM Glutathione, pH 7.5) was added to each well. Plates were centrifuged at 1000 rpm and incubated for 20 min at rt in dark. The plates were read on a PHERAstar® reader with excitation 340 nm and emission 460 nm. Data were analyzed in Genedata Screener®. IC50 values were determined by plotting % inhibition versus log compound concentration and using a one site dose response model.

hFAP (M39-A757) = target: T3, hFAP (M39-A757) (Homo sapiens, UniProt Q12884);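 also: surface plasmon resonance direct binding to hFAP amine-coupled on a sensor chip, rising compound concentrations by single cycle kinetics, Kd from global fit of interaction models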
T3 sequence (Q12884 39-757): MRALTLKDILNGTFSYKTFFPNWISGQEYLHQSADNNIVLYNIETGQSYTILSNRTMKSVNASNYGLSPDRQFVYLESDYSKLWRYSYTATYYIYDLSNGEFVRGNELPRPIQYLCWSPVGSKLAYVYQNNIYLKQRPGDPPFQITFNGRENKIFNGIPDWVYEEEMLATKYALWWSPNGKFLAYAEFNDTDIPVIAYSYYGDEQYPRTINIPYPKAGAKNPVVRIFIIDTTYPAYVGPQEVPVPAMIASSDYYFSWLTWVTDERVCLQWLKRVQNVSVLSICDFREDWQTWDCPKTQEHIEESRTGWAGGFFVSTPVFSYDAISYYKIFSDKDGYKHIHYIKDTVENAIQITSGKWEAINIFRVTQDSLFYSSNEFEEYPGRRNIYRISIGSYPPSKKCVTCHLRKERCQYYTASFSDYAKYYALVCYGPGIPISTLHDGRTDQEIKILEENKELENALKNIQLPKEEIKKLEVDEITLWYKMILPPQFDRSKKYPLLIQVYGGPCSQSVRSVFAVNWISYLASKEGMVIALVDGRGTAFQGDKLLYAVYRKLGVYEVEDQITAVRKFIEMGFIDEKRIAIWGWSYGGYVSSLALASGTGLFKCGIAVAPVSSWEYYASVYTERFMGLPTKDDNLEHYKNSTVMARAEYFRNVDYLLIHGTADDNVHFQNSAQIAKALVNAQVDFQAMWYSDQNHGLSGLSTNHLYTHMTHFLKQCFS

Structure (SMILES)	IC50 (hFAP) [nM]	IC50 [1] [nM]	Kd (hFAP (M39-A757)) [nM]
CC(O)c1ccc2nccc(C(=O)NCC(=O)N3CSC[C@H]3C#N)c2c1 (mixture of isomers) [Example 25, N-(2-((R)-4-Cyanothiazolidin-3-yl)-2-oxoethyl)-6-((RS)-1-hydroxyethyl)quinoline-4-carboxamide]	0.66	440	0.8
COC(C)c1ccc2nccc(C(=O)NCC(=O)N3CSC[C@H]3C#N)c2c1 (mixture of isomers) [Example 26, N-(2-((R)-4-Cyanothiazolidin-3-yl)-2-oxoethyl)-6-((RS)-1-methoxyethyl)quinoline-4-carboxamide]	0.84	470	4.7
COCC(OC)c1ccc2nccc(C(=O)NCC(=O)N3CSC[C@H]3C#N)c2c1 (mixture of isomers) [Example 30, N-(2-((R)-4-Cyanothiazolidin-3-yl)-2-oxoethyl)-6-((RS)-1,2-dimethoxyethyl)quinoline-4-carboxamide]	1.7	1700	0.63
N#C[C@@H]1CSCN1C(=O)CNC(=O)c1ccnc2ccc(C3COCCO3)cc12 (mixture of isomers) [Example 33, N-(2-((R)-4-Cyanothiazolidin-3-yl)-2-oxoethyl)-6-((RS)-1,4-dioxan-2-yl)quinoline-4-carboxamide]	0.54	680	0.3
N#C[C@@H]1CSCN1C(=O)CNC(=O)c1ccnc2ccc(C3CCCO3)cc12 (mixture of isomers) [Example 34, N-(2-((R)-4-Cyanothiazolidin-3-yl)-2-oxoethyl)-6-((RS)-tetrahydrofuran-2-yl)quinoline-4-carboxamide]	0.61	460	0.31
CC1(C)CC(c2ccc3nccc(C(=O)NCC(=O)N4CSC[C@H]4C#N)c3c2)CCO1 (mixture of isomers) [Example 68, N-(2-((R)-4-Cyanothiazolidin-3-yl)-2-oxoethyl)-6-((RS)-2,2-dimethyltetrahydro-2H-pyran-4-yl)quinoline-4-carboxamide]	0.3	330	0.075
N#C[C@@H]1CSCN1C(=O)CNC(=O)c1ccnc2ccc([C@]34CCOC[C@H]3C4)cc12 (racemic) [Example 69, 6-((1RS,6SR)-3-Oxabicyclo[4.1.0]heptan-6-yl)-N-(2-((R)-4-cyanothiazolidin-3-yl)-2-oxoethyl)quinoline-4-carboxamide]	0.2	350	0.026
N#C[C@@H]1CSCN1C(=O)CNC(=O)c1ccnc2ccc(Oc3ccccc3)cc12 [Example 1, (R)—N-(2-(4-Cyanothiazolidin-3-yl)-2-oxoethyl)-6-phenoxyquinoline-4-carboxamide]	0.44	35	0.33
N#C[C@@H]1CSCN1C(=O)CNC(=O)c1ccnc2ccc(C(F)(F)F)cc12 [Example 17, (R)—N-(2-(4-Cyanothiazolidin-3-yl)-2-oxoethyl)-6-(trifluoromethyl)-quinoline-4-carboxamide]	0.79	35	0.91
Cc1nn(C)nc1Cc1ccc2nccc(C(=O)NCC(=O)N3CSC[C@H]3C#N)c2c1 [Example 19, (R)—N-(2-(4-Cyanothiazolidin-3-yl)-2-oxoethyl)-6-((2,5-dimethyl-2H-1,2,3-triazol-4-yl)methyl)quinoline-4-carboxamide]	0.22	590	0.1
N#C[C@@H]1CSCN1C(=O)CNC(=O)c1ccnc2ccc(C3=CCOCC3)cc12 [Example 22, (R)—N-(2-(4-Cyanothiazolidin-3-yl)-2-oxoethyl)-6-(3,6-dihydro-2H-pyran-4-yl)quinoline-4-carboxamide]	0.24	560	0.013
Cc1ccc2nccc(C(=O)NCC(=O)N3CSC[C@H]3C#N)c2c1 [Example 28, (R)—N-(2-(4-cyanothiazolidin-3-yl)-2-oxoethyl)-6-methylquinoline-4-carboxamide]	0.65	34	1.6
Cc1conc1Cc1ccc2nccc(C(=O)NCC(=O)N3CSC[C@H]3C#N)c2c1 [Example 38, (R)—N-(2-(4-Cyanothiazolidin-3-yl)-2-oxoethyl)-6-((4-methylisoxazol-3-yl)methyl)quinoline-4-carboxamide]	0.21	180	0.34
Cc1cc(C)c(Cc2ccc3nccc(C(=O)NCC(=O)N4CSC[C@H]4C#N)c3c2)cn1 [Example 39, (R)—N-(2-(4-Cyanothiazolidin-3-yl)-2-oxoethyl)-6-((4,6-dimethylpyridin-3-yl)methyl)quinoline-4-carboxamide]	0.34	530	0.18
Cn1ncc(Cc2ccc3nccc(C(=O)NCC(=O)N4CSC[C@H]4C#N)c3c2)n1 [Example 41, (R)—N-(2-(4-Cyanothiazolidin-3-yl)-2-oxoethyl)-6-((2-methyl-2H-1,2,3-triazol-4-yl)methyl)quinoline-4-carboxamide]	0.088	370	0.36
N#C[C@@H]1CSCN1C(=O)CNC(=O)c1ccnc2ccc(C3(c4ccc(Cl)cn4)CC3)cc12 [Example 47, (R)-6-(1-(5-Chloropyridin-2-yl)cyclopropyl)-N-(2-(4-cyanothiazolidin-3-yl)-2-oxoethyl)quinoline-4-carboxamide]	–	240	0.22
N#C[C@@H]1CSCN1C(=O)CNC(=O)c1ccnc2ccc(C3(F)CCOCC3)cc12 [Example 64, (R)—N-(2-(4-Cyanothiazolidin-3-yl)-2-oxoethyl)-6-(4-fluorotetrahydro-2H-pyran-4-yl)quinoline-4-carboxamide]	–	300	0.042
COC1(c2ccc3nccc(C(=O)NCC(=O)N4CSC[C@H]4C#N)c3c2)CCOCC1 [Example 66, (R)—N-(2-(4-Cyanothiazolidin-3-yl)-2-oxoethyl)-6-(4-methoxy-tetrahydro-2H-pyran-4-yl)quinoline-4-carboxamide]	0.15	460	0.15
N#C[C@@H]1CSCN1C(=O)CNC(=O)c1ccnc2ccc(Cn3cccn3)cc12 [Example 80, (R)-6-((1H-Pyrazol-1-yl)methyl)-N-(2-(4-cyanothiazolidin-3-yl)-2-oxoethyl)quinoline-4-carboxamide]	–	290	0.3
